The supplement of paper PMC4862054
Values joined by “and” are separate entries in the source; they are usually repeats but may differ in a detail not shown here. Equal values may be shown once.

Legend:
[1] = system: BT-474; settings: 72 h
How it was run: (§1)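 For viability, cells received 2.5 µl CellTiter-Blue for 2 h at 37 °C and fluorescence was read at 560/590 nm. Before this, breast cancer cell lines in 20 µl suspension had been incubated for 72 h on 384-well plates pre-loaded with compound dissolved in 5 µl medium. EC50 was obtained from a percent-inhibition dose-response fit censored at the highest concentration, after normalisation of each plate to vehicle and a positive kill control; rows with a zero drug sensitivity score were discarded.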

[2] = system: HCC1937; settings: 72 h
How it was run: as §1

[3] = system: Hs578T; settings: 72 h
How it was run: as §1

[4] = system: SK-BR-3; assay: drug sensitivity score (DSS), CellTiter-Blue viability (DSS (AUC-based score)); higher = stronger viability inhibition; extreme values may be limits of the assay; settings: incubation time: 72 h
How it was run: (§2)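 Into 384-well plates carrying compound in a 5- or 9-concentration series went 20 µl of breast cancer cell suspension, followed by 72 h of incubation. Adding 2.5 µl CellTiter-Blue per well and incubating 2 h at 37 °C preceded fluorescence measurement at 560/590 nm. After normalisation of each plate to 0.1 % DMSO and a positive kill control, dose-response curves were fitted and the area beneath them taken as the drug sensitivity score.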

[5] = system: HDQ-P1; assay: as above; settings: incubation time: 72 h
How it was run: as §2

[6] = system: MDA-MB-436; assay: as above; settings: incubation time: 72 h
How it was run: as §2

[7] = system: Hs578T; assay: as above; settings: incubation time: 72 h
How it was run: as §2

[8] = system: MDA-MB-453; settings: 72 h
How it was run: as §1

[9] = system: DU-4475; settings: 72 h
How it was run: as §1

[10] = system: CAL-51; settings: 72 h
How it was run: as §1

[11] = system: CAL-85-1; settings: 72 h
How it was run: as §1

[12] = system: SK-BR-3; settings: 72 h
How it was run: as §1

[13] = system: MDA-MB-231; settings: 72 h
How it was run: as §1

[14] = system: CAL-120; settings: 72 h
How it was run: as §1

[15] = system: CAL-51; settings: 72 h; remark: listed apart in the source
Protocol: (§3)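 Drug sensitivity and resistance testing (DSRT) of breast cancer cell lines in 384-well plates, 5 concentrations in 10-fold dilutions over a compound-specific 10,000-fold range. After 72 h, cytotoxicity was read by CellTox Green fluorescence and viability by CellTiter-Glo luminescence (multiplexed), normalised to DMSO and benzethonium chloride controls. EC50 is the inflection point of the fitted dose-response curve (bottom asymptote free, so it can be relative for partial curves) and is censored at the highest tested concentration. Rows with DSS 0 (no meaningful response) were excluded.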

[16] = system: MDA-MB-231; settings: 72 h; remark: listed apart in the source
Protocol: as §3

[17] = system: MDA-MB-468; settings: 72 h
How it was run: as §1

[18] = system: BT-549; settings: 72 h
How it was run: as §1

[19] = system: HDQ-P1; settings: 72 h
How it was run: as §1

[20] = system: MDA-MB-436; settings: 72 h
How it was run: as §1

[21] = system: MFM-223; settings: 72 h
How it was run: as §1

| Structure (SMILES) | EC50, CellTiter-Blue viability [1] | EC50, CellTiter-Blue viability [2] | EC50, CellTiter-Blue viability [8] | EC50, CellTiter-Blue viability [12] | EC50, CellTiter-Blue viability [13] | EC50, CellTiter-Blue viability [17] | EC50, CellTiter-Blue viability [18] | EC50, CellTiter-Blue viability [20] | EC50, CellTiter-Blue viability [3] | drug sensitivity score [4] | drug sensitivity score [5] | drug sensitivity score [6] | drug sensitivity score [7] | EC50, CellTiter-Blue viability [9] | EC50, CellTiter-Blue viability [10] | EC50, CellTiter-Blue viability [11] | EC50, CellTiter-Blue viability [14] | EC50, CellTox Green [15] | EC50, CellTox Green [16] | EC50, CellTiter-Blue viability [19] | EC50, CellTiter-Blue viability [21] |
| --- | --- | --- | --- | --- | --- | --- | --- | --- | --- | --- | --- | --- | --- | --- | --- | --- | --- | --- | --- | --- | --- |
| COCC1(CO)C(=O)C2CCN1CC2 (centres undefined) [Prima-1 Met] | 4530 nM | 476 nM | – | – | – | – | – | – | > 10000 nM | 0 | 0 | 0 | 0.00378 | – | – | – | – | – | – | – | – |
| CCn1c(-c2nonc2N)nc2cnc(Oc3cccc(NC(=O)c4ccc(OCCN5CCOCC5)cc4)c3)cc21 | – | – | – | – | – | – | – | – | – | – | – | – | – | – | – | – | – | 48.1 nM | 2950 nM | – | – |
| COc1cc(O)c2c(c1)/C=C/C[C@H](O)[C@H](O)C(=O)/C=C\C[C@H](C)OC2=O [(5Z)-7-Oxozeaenol] | – | – | – | – | – | – | – | – | – | – | – | – | – | – | – | – | – | 9350 nM | 864 nM | – | – |
| O=C(Nc1cccnc1)N1CCC(Cc2cccc(Oc3ccc(C(F)(F)F)cn3)c2)CC1 [PF-3845] | 8600 nM | – | 2640 nM | – | – | > 10000 nM | 1550 nM | – | 2570 nM | 0 | 0 | 0 | 0.892 | – | 5960 nM | – | – | – | – | – | – |
| Nc1cc(C(F)(F)F)c(-c2cc(N3CCOCC3)nc(N3CCOCC3)n2)cn1 [BKM-120] | 1180 nM | 2090 nM | 532 nM | 257 nM | 1910 nM | 2330 nM | 1570 nM | 4190 nM | 3010 nM | 16.8 | 9.78 | 4.25 | 5.79 | 2260 nM | 922 nM | 1310 nM | 887 nM | – | – | 1260 nM | 1360 nM |
| COc1cc2ncnc(Nc3ccc(F)c(Cl)c3)c2cc1OCCCN1CCOCC1 [Gefitinib] | 1000 nM | – | 5030 nM | 1580 nM | > 10000 nM | 808 nM | – | – | 1060 nM | 6.49 and 10.4 | – | 0 | – | – | – | – | > 10000 nM | – | – | 3330 nM | – |
| CNC(=O)c1cc(Oc2ccc(NC(=O)Nc3ccc(Cl)c(C(F)(F)F)c3)c(F)c2)ccn1 [Regorafenib] | 8340 nM | 5960 nM | 2740 nM | – | 2370 nM | 7800 nM | 7210 nM | – | 6690 nM | 0 | 0 | 0 | 2.98 | 3000 nM | 2740 nM | – | 9380 nM | – | – | – | 706 nM |
| CN(C)c1nc(N(C)C)nc(N(C)C)n1 [Altretamine] | – | – | 6880 nM | – | – | – | – | – | – | 0 | 0 | 0 | 0 | – | – | 9540 nM | – | – | – | – | – |

Continued, in another order:

| EC50, CellTiter-Blue viability [1] | EC50, CellTiter-Blue viability [2] | EC50, CellTiter-Blue viability [8] | EC50, CellTiter-Blue viability [12] | EC50, CellTiter-Blue viability [13] | EC50, CellTiter-Blue viability [17] | EC50, CellTiter-Blue viability [18] | EC50, CellTiter-Blue viability [20] | Structure (SMILES) | EC50, CellTiter-Blue viability [3] | drug sensitivity score [4] | drug sensitivity score [5] | drug sensitivity score [6] | drug sensitivity score [7] | EC50, CellTiter-Blue viability [9] | EC50, CellTiter-Blue viability [10] | EC50, CellTiter-Blue viability [11] | EC50, CellTiter-Blue viability [14] | EC50, CellTox Green [15] | EC50, CellTox Green [16] | EC50, CellTiter-Blue viability [19] | EC50, CellTiter-Blue viability [21] |
| --- | --- | --- | --- | --- | --- | --- | --- | --- | --- | --- | --- | --- | --- | --- | --- | --- | --- | --- | --- | --- | --- |
| – | – | 6400 nM | 1050 nM | 8030 nM | – | – | – | COc1cc(OC2CCN(C)CC2)ccc1Nc1ncc2c(n1)n(C1CCCC1)c(=O)n2C [AZ 3146] | – | 2.13 | 0 | 0 | 0 | 5180 nM | 1390 nM | 3240 nM | > 10000 nM | 768 nM | – | – | – |
| 0.55 nM | 1.12 nM | 0.59 nM | 1.36 nM | 0.95 nM | 0.39 nM | 0.19 nM | > 1000 nM | CO[C@H]1C[C@@H]2CC[C@@H](C)[C@@](O)(O2)C(=O)C(=O)N2CCCC[C@H]2C(=O)O[C@H]([C@H](C)C[C@@H]2CC[C@@H](OP(C)(C)=O)[C@H](OC)C2)CC(=O)[C@H](C)/C=C(\C)[C@@H](O)[C@@H](OC)C(=O)[C@H](C)C[C@H](C)/C=C/C=C/C=C/1C [Ridaforolimus] | 0.48 nM | 16.8 | 7.08 | 1.25 | 19.1 | 1.13 nM | 1.65 nM | 0.17 nM | 1 nM | – | – | 3.88 nM | 0.24 nM |
| – | 121 nM | 86.3 nM | – | 92.4 nM | 35.9 nM | 273 nM | 2740 nM | CC(C)C[C@@H](C(=O)N[C@H](C(=O)OC1CCCC1)c1ccccc1)[C@H](O)C(=O)NO [Tosedostat] | 2140 nM | 0 | 4.23 | 1.84 | 2.31 | 126 nM | 6030 nM | 2940 nM | 16.7 nM | 35.5 nM | 52.9 nM | 268 nM | 2230 nM |
| – | 961 nM | 4750 nM | 3740 nM | 8350 nM | 1430 nM | 4110 nM | 1010 nM | CCc1c2c(nc3ccc(OC(=O)N4CCC(N5CCCCC5)CC4)cc13)-c1cc3c(c(=O)n1C2)COC(=O)[C@]3(O)CC [Irinotecan] | – | 6.6 and 2.45 | – | – | 0 | 2550 nM | 2940 nM | 3510 nM | 1110 nM | 1220 nM | – | > 10000 nM | 9110 nM |
| 2290 nM | – | 4640 nM | 4330 nM | 2480 nM | 3330 nM | 3750 nM | 138 nM | COc1cc2/c(=N/c3ccc(Br)cc3F)nc[nH]c2cc1OCC1CCN(C)CC1 [Vandetanib] | 2060 nM | 4.07 | 14 | 13 | 3.9 | – | 2900 nM | 2590 nM | 5260 nM | – | – | 191 nM | 926 nM |
